Reference: US20250195530A1, “POLQ INHIBITORS” (ASTRAZENECA AB, priority 2022, published 2025)
Where two headings read alike, the source gives them in different places.

How the values were obtained:
DLD-1 BRCA2−/− cells = experiment: Homologous recombination synthetic lethal inhibition of proliferation, DLD-1 BRCA2-/- (Cell Titre Glo 3D); format: cell-based; settings: Homo sapiens
How it was run: (§1)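 DLD-1 BRCA2−/− (3,000 cells/mL) and parental DLD-1 (1,500 cells/mL) cells in phenol red-free RPMI 1640 with 10% FBS were exposed to a 10-point, three-fold compound series from 10 μM to 0.51 nM at 37 °C, 5% CO2. Medium and compound were replenished on day 6. CellTiter-Glo 3D luminescence was read on day 7 (DLD-1) or day 12 (BRCA2−/−), and IC50 was taken as 50% reduction of maximum signal.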

DLD-1 cells = experiment: Inhibition of proliferation, DLD-1 BRCA2 wt control (Cell Titre Glo 3D); format: cell-based; settings: Homo sapiens
How it was run: as §1

[1] = DLD-1, DLD-1 BRCA2-/- proliferation, column head only partly shown, read-out: POLQ PD Prolif Lumin (converted)
[2] = DLD-1, DLD-1 BRCA2 wt control proliferation, column head only partly shown, read-out: POLQ PD Prolif Lumin (converted)
[3] = DLD-1, proliferation, luminescence, taken as DLD-1 BRCA2-/-, read-out: POLQ PD Prolif Lumin (converted)
[4] = DLD-1, proliferation, luminescence, second Prolif column (c6), taken as DLD-1 BRCA2 wt control, read-out: POLQ PD Prolif Lumin (converted)
[5] = DLD-1, 288 h, DLD-1 BRCA2−/− cells, 12 days, read-out: POLQ PD Prolif Lumin BRCA2 −/− mean pIC50 (converted)
[6] = DLD-1, 168 h, DLD-1 BRCA2 wt cells, 7 days, read-out: POLQ PD Prolif Lumin DLD1 mean pIC50 (converted)
[7] = DLD-1, first proliferation column (c5), taken as DLD-1 BRCA2-/-, read-out: POLQ PD Prolif Lumin (converted)
[8] = DLD-1, second proliferation column (c6), taken as DLD-1 BRCA2 wt, read-out: POLQ PD Prolif Lumin (converted)
[9] = DLD-1, DLD-1 BRCA2 −/− cells, mean, read-out: POLQ PD Prolif Lumin BRCA2 −/− mean pIC50 (converted)
[10] = DLD-1, DLD1 BRCA2 wt cells, mean, read-out: POLQ PD Prolif Lumin DLD1 mean PIC50 (converted)

For `Cc1cnc(Cn2c(-c3cccc(OCCCN4CC(O)C4)c3Cl)nc3c(OC4(C)CC4)ncnc32)s1` [Example T246, 1-(3-(2-chloro-3-(6-(1-methylcyclopropoxy)-9-((5-methylthiazol-2-yl)methyl)-9H-purin-8-yl)phenoxy)propyl)azetidin-3-ol], the IC50 (DLD-1 BRCA2−/− cells; [1]) was 794 nM and the IC50 (DLD-1 cells; [2]) was > 10000 nM.

In the case of `Cc1ccnc(Cn2c(-c3ccc(C(=O)N4CCC(F)CC4)cc3Cl)nc3c(OC4(C)CC4)ncnc32)c1` [Example T419, (3-chloro-4-(6-(1-methylcyclopropoxy)-9-((4-methylpyridin-2-yl)methyl)-9H-purin-8-yl)phenyl)(4-fluoropiperidin-1-yl)methanone], the IC50 (DLD-1 BRCA2−/− cells; [3]) was 1000 nM and the IC50 (DLD-1 cells; [4]) was > 10000 nM.

In the case of `CC1(Oc2ncnc3c2nc(-c2cccc(OCCCOCC(=O)O)c2Cl)n3Cc2cc(Cl)ccc2C#N)CC1` [Example U98, 2-(3-(2-chloro-3-(9-(5-chloro-2-cyanobenzyl)-6-(1-methylcyclopropoxy)-9H-purin-8-yl)phenoxy)propoxy)acetic acid], the IC50 (DLD-1 BRCA2−/− cells; DLD-1, DLD-1 BRCA2 −/−, mean, read-out: POLQ PD Prolif Lumin BRCA2 −/− mean pIC50 (converted)) was 31.6 nM and the IC50 (DLD-1 cells; DLD-1, DLD1 BRCA2 wt, mean, read-out: POLQ PD Prolif Lumin DLD1 mean pIC50 (converted)) was > 10000 nM.

With `CNCCCOc1ccc(-c2nc3c(OC4(C)CC4)ncnc3n2Cc2cc(C)ccn2)c(Cl)c1` [Example T238, 3-(3-chloro-4-(6-(1-methylcyclopropoxy)-9-((4-methylpyridin-2-yl)methyl)-9H-purin-8-yl)phenoxy)-N-methylpropan-1-amine] the IC50 (DLD-1 BRCA2−/− cells; [1]) was 501 nM and the IC50 (DLD-1 cells; [2]) was > 10000 nM.

In the case of `Cc1ccnc(Cn2c(-c3ccc(C(=O)N4CCC(O)CC4)cc3Cl)nc3c(OC4(C)CC4)ncnc32)c1` [Example T460, (3-chloro-4-(6-(1-methylcyclopropoxy)-9-((4-methylpyridin-2-yl)methyl)-9H-purin-8-yl)phenyl)(4-hydroxypiperidin-1-yl)methanone], the IC50 (DLD-1 BRCA2−/− cells; [3]) was 3160 nM and the IC50 (DLD-1 cells; [4]) was > 10000 nM.

For `CC1(Oc2cccc3c2nc(-c2ccc(OCCN4CCNCC4)cc2Cl)n3Cc2cc(Cl)ccn2)CC1` [Example 15, 2-(2-chloro-4-(2-(piperazin-1-yl)ethoxy)phenyl)-1-((4-chloropyridin-2-yl)methyl)-4-(1-methylcyclopropoxy)-1H-benzo[d]imidazole], the IC50 (DLD-1 BRCA2−/− cells; [5]) was 251 nM and the IC50 (DLD-1 cells; [6]) was 6310 nM.

With `CC1(Oc2ncnc3c2nc(-c2ccc(OCCN4CC5CC(C4)N5)cc2Cl)n3Cc2ccccc2)CC1` [Example R5, 3-(2-(4-(9-benzyl-6-(1-methylcyclopropoxy)-9H-purin-8-yl)-3-chlorophenoxy)ethyl)-3,6-diazabicyclo[3.1.1]heptane] the IC50 (DLD-1 BRCA2−/− cells; [5]) was 100 nM and the IC50 (DLD-1 cells; [6]) was 3980 nM.

For `Cc1cccc(Cn2c(-c3ccc(OCCN4CCNCC4)cc3Cl)nc3c(OC4(C)CC4)ncnc32)n1` [Example K7, 8-(2-chloro-4-(2-(piperazin-1-yl)ethoxy)phenyl)-6-(1-methylcyclopropoxy)-9-((6-methylpyridin-2-yl)methyl)-9H-purine], the IC50 (DLD-1 BRCA2−/− cells; [5]) was 1260 nM and the IC50 (DLD-1 cells; [6]) was > 10000 nM.

`CC1(Oc2ncnc3c2nc(-c2ccc(OCCN4CCNCC4=O)cc2Cl)n3Cc2ccccc2)CC1` [Example M5, 1-(2-(4-(9-benzyl-6-(1-methylcyclopropoxy)-9H-purin-8-yl)-3-chlorophenoxy)ethyl)piperazin-2-one] was tested, and the IC50 (DLD-1 BRCA2−/− cells; [5]) was 100 nM and the IC50 (DLD-1 cells; [6]) was > 10000 nM.

In the case of `CC1(Oc2ncnc3c2nc(-c2ccc(OCCN4CCNCC4)cc2Cl)n3Cc2cc(C#N)ccn2)CC1` [Example L4, 2-((8-(2-chloro-4-(2-(piperazin-1-yl)ethoxy)phenyl)-6-(1-methylcyclopropoxy)-9H-purin-9-yl)methyl)isonicotinonitrile], the IC50 (DLD-1 BRCA2−/− cells; [5]) was 1000 nM and the IC50 (DLD-1 cells; [6]) was > 10000 nM.

`CC1(Oc2ncnc3c2nc(-c2ccc(OCCN4CCNCC4)cc2Cl)n3Cc2cc(Cl)ccn2)CC1` [Example 10, 8-(2-Chloro-4-(2-(piperazin-1-yl)ethoxy)phenyl)-9-((4-chloropyridin-2-yl)methyl)-6-(1-methylcyclopropoxy)-9H-purine] was tested, and the IC50 (DLD-1 BRCA2−/− cells; [5]) was 200 nM and the IC50 (DLD-1 cells; [6]) was > 10000 nM.

`CC1(Oc2ncnc3c2nc(-c2ccc(OC4CNC4)cc2Cl)n3Cc2ccccc2)CC1` [Example D35, 8-(4-(azetidin-3-yloxy)-2-chlorophenyl)-9-benzyl-6-(1-methylcyclopropoxy)-9H-purine] was tested, and the IC50 (DLD-1 BRCA2−/− cells; [5]) was 501 nM and the IC50 (DLD-1 cells; [6]) was 3980 nM.

`CC1(Oc2ncnc3c2nc(-c2ccc(OCCN4CC5(CSC5)C4)cc2Cl)n3Cc2ccccc2)CC1` [Example H23, 6-(2-(4-(9-benzyl-6-(1-methylcyclopropoxy)-9H-purin-8-yl)-3-chlorophenoxy)ethyl)-2-thia-6-azaspiro[3.3]heptane] showed an IC50 (DLD-1 BRCA2−/− cells; [5]) of 126 nM and an IC50 (DLD-1 cells; [6]) of 2510 nM.

In the case of `Cc1ccnc(Cn2c(-c3ccc(CCN4CC(O)C4)cc3Cl)nc3c(OC4(C)CC4)ncnc32)c1` [Example T355, 1-(3-chloro-4-(6-(1-methylcyclopropoxy)-9-((4-methylpyridin-2-yl)methyl)-9H-purin-8-yl)phenethyl)azetidin-3-ol], the IC50 (DLD-1 BRCA2−/− cells; [7]) was 631 nM and the IC50 (DLD-1 cells; [8]) was > 10000 nM.

In the case of `CC(CCOc1ccc(-c2nc3c(OC4(C)CC4)ncnc3n2Cc2cc(F)cc(F)c2)c(Cl)c1)C(=O)O` (racemic) [Example T260, 4-(3-chloro-4-(9-(3,5-difluorobenzyl)-6-(1-methylcyclopropoxy)-9H-purin-8-yl)phenoxy)-2-methylbutanoic acid], the IC50 (DLD-1 BRCA2−/− cells; [1]) was 251 nM and the IC50 (DLD-1 cells; [2]) was > 10000 nM.

`CC1(Oc2ncnc3c2nc(-c2ccc(OCCN4CC(O)C4)cc2Cl)n3Cc2cc(Cl)ccn2)CC1` [Example T206, 1-(2-(3-chloro-4-(9-((4-chloropyridin-2-yl)methyl)-6-(1-methylcyclopropoxy)-9H-purin-8-yl)phenoxy)ethyl)azetidin-3-ol] was tested, and the IC50 (DLD-1 BRCA2−/− cells; [1]) was 126 nM and the IC50 (DLD-1 cells; [2]) was > 10000 nM.

For `CC1(Oc2ncnc3c2nc(-c2cccc(C(=O)O)c2Cl)n3Cc2cccc(Cl)c2)CC1` [Example T12, 2-chloro-3-(9-(3-chlorobenzyl)-6-(1-methylcyclopropoxy)-9H-purin-8-yl)benzoic acid], the IC50 (DLD-1 BRCA2−/− cells; [9]) was > 10000 nM and the IC50 (DLD-1 cells; [10]) was > 10000 nM.

In the case of `CNCc1ccc(-c2nc3c(OC4(C)CC4)ncnc3n2Cc2cc(C)ccn2)c(Cl)c1` [Example T68, 1-(3-chloro-4-(6-(1-methylcyclopropoxy)-9-((4-methylpyridin-2-yl)methyl)-9H-purin-8-yl)phenyl)-N-methylmethanamine], the IC50 (DLD-1 BRCA2−/− cells; [9]) was 1000 nM and the IC50 (DLD-1 cells; [10]) was > 10000 nM.

`Cc1cc(OC[C@H]2COCCN2)ncc1-c1nc2c(OC3(C)CC3)ncnc2n1Cc1ccccc1` [Example G16, (R)-3-(((5-(9-benzyl-6-(1-methylcyclopropoxy)-9H-purin-8-yl)-4-methylpyridin-2-yl)oxy)methyl)morpholine] was tested, and the IC50 (DLD-1 BRCA2−/− cells; [5]) was 794 nM and the IC50 (DLD-1 cells; [6]) was > 10000 nM.

`CC1(Oc2ncnc3c2nc(-c2ccc(OCCN4CCC[C@H]4C(=O)O)cc2Cl)n3Cc2ccccc2)CC1` [Example H12, (2-(4-(9-benzyl-6-(1-methylcyclopropoxy)-9H-purin-8-yl)-3-chlorophenoxy)ethyl)-L-proline] was tested, and the IC50 (DLD-1 BRCA2−/− cells; [5]) was 1000 nM and the IC50 (DLD-1 cells; [6]) was > 10000 nM.

With `Cc1ccnc(Cn2c(-c3ccc(OCCCN(C)C)cc3Cl)nc3c(OC4(C)CC4)ncnc32)c1` [Example T385, 3-(3-chloro-4-(6-(1-methylcyclopropoxy)-9-((4-methylpyridin-2-yl)methyl)-9H-purin-8-yl)phenoxy)-N,N-dimethylpropan-1-amine] the IC50 (DLD-1 BRCA2−/− cells; [7]) was 79.4 nM and the IC50 (DLD-1 cells; [8]) was > 10000 nM.

For `Cc1ccnc(Cn2c(-c3ccc(CC(=O)N4CCC4)cc3Cl)nc3c(OC4(C)CC4)ncnc32)c1` [Example T308, 1-(azetidin-1-yl)-2-(3-chloro-4-(6-(1-methylcyclopropoxy)-9-((4-methylpyridin-2-yl)methyl)-9H-purin-8-yl)phenyl)ethan-1-one], the IC50 (DLD-1 BRCA2−/− cells; [7]) was 316 nM and the IC50 (DLD-1 cells; [8]) was > 10000 nM.

With `Cc1ccnc(Cn2c(-c3ccc(OC4CNC(=O)C4)cc3Cl)nc3c(OC4(C)CC4)ncnc32)c1` (racemic) [Example T179, 4-(3-chloro-4-(6-(1-methylcyclopropoxy)-9-((4-methylpyridin-2-yl)methyl)-9H-purin-8-yl)phenoxy)pyrrolidin-2-one] the IC50 (DLD-1 BRCA2−/− cells; DLD-1, first proliferation column (c5), DLD-1 BRCA2-/-, read-out: POLQ PD Prolif Lumin (converted)) was 316 nM and the IC50 (DLD-1 cells; DLD-1, second proliferation column (c6), DLD-1 BRCA2 wt control, read-out: POLQ PD Prolif Lumin (converted)) was > 10000 nM.

For `Cc1ccnc(Cn2c(-c3ccc(CCN4CCC(O)CC4)cc3Cl)nc3c(OC4(C)CC4)ncnc32)c1` [Example T591, 1-(3-chloro-4-(6-(1-methylcyclopropoxy)-9-((4-methylpyridin-2-yl)methyl)-9H-purin-8-yl)phenethyl)piperidin-4-ol], the IC50 (DLD-1 BRCA2−/− cells; DLD-1, first proliferation column, DLD-1 BRCA2-/-, read-out: POLQ PD Prolif Lumin (converted)) was 316 nM and the IC50 (DLD-1 cells; DLD-1, second proliferation column, DLD-1 BRCA2 wt control, read-out: POLQ PD Prolif Lumin (converted)) was > 10000 nM.

With `CC1(Oc2ncnc3c2nc(-c2ccc(OCCC(=O)O)cc2Cl)n3Cc2cccc(Cl)c2Cl)CC1` [Example T85, 3-(3-chloro-4-(9-(2,3-dichlorobenzyl)-6-(1-methylcyclopropoxy)-9H-purin-8-yl)phenoxy)propanoic acid] the IC50 (DLD-1 BRCA2−/− cells; [9]) was 794 nM and the IC50 (DLD-1 cells; [10]) was > 10000 nM.
